Laboratory results from patent US5447900A, “Thermosensitive recording material” (priority 1993, dated 1995).

Assay: Acid dissociation constant (pKa) by titration with sodium hydroxide, pH meter, in water/methanol 1:1
Format: physicochemical
Procedure: In Table 1, the acid dissociation constant of a compound was measured by the following method:
A commercially available pH meter "HORIBA N-8F" (Trademark), made by Horiba Ltd., equipped with three composite electrodes, was calibrated by using the following two solutions:
Water/methanol solution (with a volume ratio of 1:1) containing 0.05 mol/l potassium hydrogenphthalate.
Water/methanol solution (with a volume ratio of 1:1) containing 0.01 mol/l tris(hydroxy)aminomethane and 0.01 mol/l tris(hydroxy)aminomethane hydrochloride.
Then, a solution A was prepared in such a manner that 0.4969 g of 4-(4'-phenoxybutoxy)phthalic acid (Compound No. 1 in Table 1) and 0.5844 g of sodium chloride,were dissolved in a mixed solvent consisting of 50 ml of water and 50 ml of methanol.
In addition, a 0.1068 mol/l sodium hydroxide aqueous solution was prepared by standardizing the solution with potassium hydrogen-phthalate. This solution was hereinafter referred to as a solution B.
The solution A was placed in a beaker and stirred with a stirrer. The solution B was added dropwise in an amount of 0.5 to 1.0 ml to the solution A, with stirring, through a buret. When the pH of the solution A reached a constant value, the pH was measured. The pH was further measured with further addition of the solution B to the solution A, so that a titration curve was obtained. This titration curve was fitted in a theoretical formula by using a computer program, so that an acid dissociation constant of the compound No. 1 was calculated.

[1] = comparative color developer, solvent not given
[2] = mixed solvent of water and methanol, volume ratio 1:1

Structure (SMILES): CC(C)Oc1ccc(S(=O)(=O)c2ccc(O)cc2)cc1 [4-isopropoxy-4'-hydroxydiphenylsulfone]
- acid dissociation constant pKa [1]: 8.27

Structure (SMILES): CC(C)(c1ccc(O)cc1)c1ccc(O)cc1 [4,4'-isopropylidene diphenol]
- acid dissociation constant pKa1 (printed pKal) [1]: ~10.7
- acid dissociation constant pKa2 [1]: 10.7

Structure (SMILES): O=C(O)c1ccc(OCCCCOc2ccccc2)cc1C(=O)O [Compound No. 1, 4-(4'-phenoxybutoxy)phthalic acid]
- Acid Dissociation Constant pKa1 [2]: 3.55
- acid dissociation constant pKa2 [2]: 6.59
